Consider 3 compounds from PMC4815915 (Bioorganic & medicinal chemistry letters, 2015).

The subject of experiment [1] is Plasmodium falciparum 3D7 strain. Kind of experiment: In vitro antiplasmodial activity against chloroquine-susceptible 3D7 strain. It is filed as cell-based.
The subject of experiment [2] is rat microglia TXB2 generation. Conditions: read-out: TXB2 generation apparent IC50; cited from earlier work.

On to `CCN(CC)CCCC(C)Nc1ccnc2cc(Cl)ccc12` (stereo not drawn) [CQ, chloroquine], for which the IC50 in experiment [1] (Plasmodium falciparum, 3D7, read-out: 3D7 IC50 ± SE) is 6.6 ± 0.0008 nM.
With `[C-]#[N+]C(C)(C)C[C@@H]1C[C@H](C)[C@H]2CC[C@H](C)[C@@]3([N+]#[C-])CCC(=C)[C@@H]1[C@H]23` [Compound 3, 8,15-diisocyano-11(20)-amphilectene], the “Fold more active than the standard drug CQ (3D7)” value in experiment [1] (antiplasmodial IC50 compared with chloroquine) came out at 5.5 times.
In the case of `CC(C(=O)O)c1ccc(-c2ccccc2)c(F)c1` (stereo not drawn) [flurbiprofen], the IC50 in experiment [2] was 100 nM.
